Data from US8206983B2, “In vitro methods for the induction and maintenance of plant cell lines as single suspension cells with intact cell walls” (Dow AgroSciences, LLC., priority 2006, dated 2012).

How the values were obtained:
BY2 cells = assay: Single cell production by MTI in BY2 cells in glycerol medium; type: cell-based, tobacco; conditions: glycerol as total carbon source
Protocol: The effects of Microtubule inhibitors (MTI) on tobacco cell growth in suspension culture were examined. Day seven stationary phase cells (1 ml) were transferred to medium (50 ml) in 250 ml shake flasks (Bokros et al., 1993) containing different concentrations (25 to 1000 nM) of MTI and were grown in cultures for 7 days in dark at 25° C. Both the control and MTI-containing flasks contained a final concentration of 0.5-0.1% (v/v) DMSO. The growth of these chemicals was evaluated in EP12 medium for BY2 cells and NT1B medium for BTI-NT1 cells were the carbon source is substituted with 3% glycerol. The response of these cells was compared with the same medium composition but with 3% sucrose as the Carbon source.

Tobacco BY2 suspension = assay: BY2 single cell production with diphenylpyrazole; type: cell-based
Protocol: Production of GFP expressing single cells. Single cells were produced by adding 1 uM concentration of the compound DDP (diphenylpyrazole) during the initiation of the 7 d culture cycle in the LSBY2-Gly-B15 medium along with the addition of 0.5 ml Pack Cell Volume (PCV) of GFP expressing suspension aggregates at the stationary phase. Alternately, a 25-ml of suspension aggregates were transferred to a 25-ml of fresh LSBY2-Gly-B15 suspension medium by adding 50 ul of […] diphenylpyrazole stock solution dissolved in DMSO to provide a 1 uM final concentration in the suspension. Thus single cells could be produced in a much shorter cycle of only 3.5 days. The LSBY215 medium always contain 15 mg/l glufosinate ammonium for selection
Initiation of single cells in preparation for plastid transformation. Four milliliters of Tobacco BY2 suspension (at the stationary phase growth maintained on a 7-d cycle) was added to 26 mL of fresh medium that composed of either Medium A [LS salts (PhytoTechnology Laboratories, L689), 120 g/L sucrose, 1 mg/L nicotinic acid, 1 mg/L pyridoxine HCl, 10 mg/L thiamine HCl, and 20 nM diphenylpyrazole (DPP)] or Medium B [LS salts, 120 g/L sucrose, 1 mg/L nicotinic acid, 1 mg/L pyridoxine HCl, 10 mg/L thiamine HCl, 2.5 mg/L benzylaminopurine (BAP) and 20 nM DPP] contained in a 125 mL shake flask with a foam stopper. […]

PH suspension cells = assay: Recovery of Petite Havana suspension cells after DAS-PMTI-1 treatment; type: cell-based, tobacco; conditions: after 7 days at 0.5 mM; after 2 weeks
From the text: (§1) BY2 suspension-cultured cells were obtained from Japan tobacco and maintained in LSBY2 medium in a 7 day cycle. Jimsonweed suspension and Pettite Havana tobacco suspensions were initiated from callus initiated at DAS and Xanthi suspensions were procured as a sample from Professor Jack Widholm from UIUC, IL. JT-NT1 suspension cells, obtained from Washington University that are maintained in NT1B medium in 7 day cycle were used only for the pectin degradation enzyme study to separate the cells into single cells. The cells were cultured in shake flasks at 25-28° C. in dark on orbital shakers at 150 rpm. […] The NT-1 cell line is widely used and readily available; though, any tobacco suspension cell line is consistent with the practice of the invention. […]
(§2) Cell expansion and separation were observed by light microscopy (with Nomarski and dark field optics). Spherical cells and single cells were counted by using a hemacytometer to determine the degree of cell expansion and separation, respectively. Cell numbers in aggregates were determined by treating with 5% (wt/vol) chromium trioxide for 16 hr and counting cells (Henshaw et. al, 1966). Cell viability was determined by staining cells (Yokoyama et. al, 1997) with fluorescein diacetate (FDA) and propidium iodide (PI) using a fluorescent microscope (Zeiss Photomicroscope). […]

maize suspension = assay: Single cell production from chlorophyllous maize cell cultures; type: cell-based
From the text: The maize photoautotrophi cultures were initiated and maintained in 7 day culture cycles (Jayakumar et. al. 2005). […] The maize suspension units are tightly packed into hard cell aggregates when compared to the dicot cells analyzed.

JM cells = assay: Effects of colchicine on growth and cell separation of Jimson weed suspension cells; type: cell-based
From the text: BY2 suspension-cultured cells were obtained from Japan tobacco and maintained in LSBY2 medium in a 7 day cycle. Jimsonweed suspension and Pettite Havana tobacco suspensions were initiated from callus initiated at DAS and Xanthi suspensions were procured as a sample from Professor Jack Widholm from UIUC, IL. JT-NT1 suspension cells, obtained from Washington University that are maintained in NT1B medium in 7 day cycle were used only for the pectin degradation enzyme study to separate the cells into single cells. The cells were cultured in shake flasks at 25-28° C. in dark on orbital shakers at 150 rpm. […] Stock concentrations of both the tubulin polymerization inhibitors used in this investigation were dissolved in DMSO to prepare a 0.5 M stock solution. The concentration tested for the pectinase and pectolyase enzymes were in the range of 0.0005% to 0.005%. The tobacco suspension cell lines NT-1 and BY-2, for example, are suitable for the practice of the present invention. […] The NT-1 cell line is widely used and readily available; though, any tobacco suspension cell line is consistent with the practice of the invention. […]
Cell expansion and separation were observed by light microscopy (with Nomarski and dark field optics). Spherical cells and single cells were counted by using a hemacytometer to determine the degree of cell expansion and separation, respectively. Cell numbers in aggregates were determined by treating with 5% (wt/vol) chromium trioxide for 16 hr and counting cells (Henshaw et. al, 1966). Cell viability was determined by staining cells (Yokoyama et. al, 1997) with fluorescein diacetate (FDA) and propidium iodide (PI) using a fluorescent microscope (Zeiss Photomicroscope). […] Calcafluor obtained from Sigma, which is a specific fluorescent dye for cellulose is used in this study, and the cellulose-Calcafluor complexing was observed by fluorescence microscopy (Zeiss Photomicroscope). […]

NT1 suspension cells = assay: Effects of colchicine on growth of NT1 suspension cells; type: cell-based, Nicotiana tabacum; conditions: 1 mM
From the text: as §1, §2

soybean suspension cells = conditions: cited from earlier work
BY2 suspension cells = assay: Effects of colchicine on growth and cell separation of BY2 suspension cells; type: cell-based, tobacco
From the text: BY2 suspension-cultured cells were obtained from Japan tobacco and maintained in LSBY2 medium in a 7 day cycle. Jimsonweed suspension and Pettite Havana tobacco suspensions were initiated from callus initiated at DAS and Xanthi suspensions were procured as a sample from Professor Jack Widholm from UIUC, IL. JT-NT1 suspension cells, obtained from Washington University that are maintained in NT1B medium in 7 day cycle were used only for the pectin degradation enzyme study to separate the cells into single cells. The cells were cultured in shake flasks at 25-28° C. in dark on orbital shakers at 150 rpm. […] Stock concentrations of both the tubulin polymerization inhibitors used in this investigation were dissolved in DMSO to prepare a 0.5 M stock solution. The concentration tested for the pectinase and pectolyase enzymes were in the range of 0.0005% to 0.005%. The tobacco suspension cell lines NT-1 and BY-2, for example, are suitable for the practice of the present invention. BY-2 cells are commercially available and are available according to Nagata et al, for example (Nagata, T., Nemoto, Y., and Hasezawa, S. [1992], Tobacco BY-2 cell line as the “HeLa” cell in the cell biology of higher plants. Int. Rev. Cytol. 132: 1-30). NT-1 cells were originally developed from Nicotiana tabacum L. cv. bright yellow 2. The NT-1 cell line is widely used and readily available; though, any tobacco suspension cell line is consistent with the practice of the invention. It is worth noting that the origins of the NT-1 cell line are unclear. Moreover, the cell line appears variable and is prone to change in response to culture conditions. NT-1 cells suitable for use in the examples below are available from the American Type Culture Collection under accession number ATCC No. 74840. See also U.S. Pat. No. 6,140,075.
Cell expansion and separation were observed by light microscopy (with Nomarski and dark field optics). Spherical cells and single cells were counted by using a hemacytometer to determine the degree of cell expansion and separation, respectively. Cell numbers in aggregates were determined by treating with 5% (wt/vol) chromium trioxide for 16 hr and counting cells (Henshaw et. al, 1966). Cell viability was determined by staining cells (Yokoyama et. al, 1997) with fluorescein diacetate (FDA) and propidium iodide (PI) using a fluorescent microscope (Zeiss Photomicroscope). In order to determine the presence of the cell wall in this single cell cultures optical brightener was used. Calcafluor obtained from Sigma, which is a specific fluorescent dye for cellulose is used in this study, and the cellulose-Calcafluor complexing was observed by fluorescence microscopy (Zeiss Photomicroscope). […]

Eragrostis curvula = conditions: seeds treated with 0.05% colchicine, tetraploids; cited from earlier work

Row | Compound | concentration effective for the production of single cells (BY2 cells) | single cell production (Tobacco BY2 suspension; 20 nM, Medium A and Medium B, 7 days) | cells with single nucleus with one or two nucleoli (Tobacco BY2 suspension; 1 uM, 3.5 days of culture, LSBY2 Glycerol medium) | recovery after subculture in the absence of the compound (PH suspension cells) | concentration at which active in releasing single cells (maize suspension) | cell growth (JM cells; 0.5 mM) | cell viability (FDA and PI) (JM cells; 1 mM, 7 d) | single suspension cells (JM cells; 1 mM, 7 days) | reduction in growth (NT1 suspension cells) | viable cells (soybean suspension cells; 1 mM colchicine) | concentration in culture medium for cell separation (soybean suspension cells) | single suspension cells (BY2 suspension cells; 1 mM, 7 days) | amount of cells compared with control cultures (BY2 suspension cells; 1 mM, after 7 days) | suspension cells seen as single intact cells (BY2 suspension cells; 7 days in 1 mM, then sub-cultured to colchicine-free medium) | cell viability (FDA and PI) (BY2 suspension cells; BY2-Variant, 1 mM, 7 d) | polymorphic percentage (Eragrostis curvula)
1 | CCOC(=O)COc1nn(-c2ccccc2)c(-c2ccccc2)c1Cl [DAS-PMTI-1] | 5 to 25 nM | produced single cells | 90% | recovered as single cells with a low frequency |  |  |  |  |  |  |  |  |  |  |  | 
2 | COc1cc2c(c(OC)c1OC)-c1ccc(OC)c(=O)cc1[C@@H](NC(C)=O)CC2 [Colchicine] |  |  |  |  | above 0.5 mM | drastically affected | high viability | high degree of single suspension cells | ~50% | 44.8% | 0.1 to 1.0 mM | high degree of single suspension cells | about equal amounts | ~90% | high viability | 1.09%
